Measured values from patent US11091511B2, “Panaxdiol-type ginsenoside derivative, preparation method therefor and use thereof” (ARMY MEDICAL UNIVERSITY, priority 2016, dated 2021).
Marks after values point to notes of the source that are not given here.

Columns and labels:
RAW264.7 cells = assay: RAW264.7 cell survival rate by CCK8 method; format: cell-based, mouse; details: compound 10 prnol/L, 0.1% DMSO, CCK8, x ± s, n = 3, normal saline control = 1
Procedure: In order to further verify the toxicities of the compounds prepared in Examples 1-30 of the present invention, the mouse macrophage cell line RAW264.7 was cultured, and the compounds prepared in Examples 1-30 of the invention were prepared to a concentration of […] using culture medium, wherein the solvent was normal saline, the co-solvent was dimethyl sulfoxide (DMSO, the final concentratoin was 0.1%), and a 0.1% DMSO saline control group was provided. The cell survival rate was determined by CCK8 method. The data were expressed as x±s. SPSS 10.0 line single-factor analysis of variance was performed among groups. The difference was significant when p<0.05.

[1] = tested on: RAW264.7 cell-derived foam cells; assay: Formation of RAW264.7 cell-derived foam cells (ox-LDL, oil red O, absorbance 490 nm); format: cell-based, mouse; details: 48 hours, model group = 100%, x ± s, n = 3
Procedure: The effects of the compounds prepared in Examples 1-30 of the present invention on the formation of RAW264.7 cell-derived foam cells, the specific steps are as follows:
1. Cell culture and foam cell model establishment:
RAW264.7 cells were cultured in DMEM culture medium with high glucose level (GIBCO) to a cell concentration of 1×10^6, planted in a 6-well plate, and 60 mg/L of ox-LDL (oxidized modified low-density lipoprotein, Peking Union Medical College) was added, foam cells were obtained after 48 hours of incubation.
2. Grouping and index detection:
The obtained foam cells were divided into 61 groups, 3 well plates were included in one group. After the treatment by adding the drugs (100 μL/well) for 48 hours, the medium was discarded, and after oil red 0 staining, the excess amount of oil red 0 was washed away. The cells were dissolved in isopropanol and the absorbance values were measured at 490 nm. The OD value of the model group was 100%, and the OD value of each group corrected by the number of cells was compared with the model group to obtain the ratio of intracellular lipid content. The larger the value, the more intracellular lipids, the higher the degree of formation of foam cells.
Normal saline control group: normal saline
Low dose groups of the compounds prepared in Examples 1-30 of the present invention:
10 μmol/L (solvents were normal saline).
High dose groups of compounds prepared in Examples 1-30 of the present invention: 30 μmol/L (solvents were normal saline).
Data were expressed as x±s, and SPSS 10.0 line single-factor analysis of variance was performed amoung groups, a significant difference was indicated when p<0.05.

TNF-α = assay: Local TNF-α level in the arteries of apoE-/- mice (Millipore liquid phase chip); format: in vivo, mouse; details: high-fat diet, intragastric 15 weeks, compounds 30 mg/(kg·d), simvastatin 10 mg/(kg·d), x ± s, n = 5, saline control 25.58 ± 6.44
Text: (§1) The effects of the compounds prepared in Examples 1-30 of the present invention on the percentages of areas of atherosclerotic plaque formation to the area of the entire artery in apoE−/− mice with a high-fat diet and the levels of low-density lipoprotein cholesterol and the levels of high-density lipoprotein, the specific steps are as follows: 1. animals: 160 ten-week-old, healthy and clean-grade apoE−/− mice (purchased from Peking University Experimental Animal Center), males, weight: 22-25 g, were housed in separate cages in a sterile laminar feeding room and fed freely. The mice were fed by a high-fat diet (conventional feed+0.15% cholesterol+21% lard) for 25 weeks, the room temperature was kept at 24° C., relative humidity: 50%, illumination time 7:30-19:30. 2. Grouping, administration method: after 10 weeks of feeding, the animals were divided into the following 32 groups (n=5) by weight in a balanced and random manner, and killed 15 weeks after administration. Normal saline control group: normal saline, intragastric administration. Positive control group: simvastatin 10 mg/(kg·d), intragastric administration. The compound groups prepared in Examples 1-30 of the present invention (30 groups in total): each was intragastric administered 30 mg/(kg·d). (3) Determination of TNF-α level: Millipore liquid phase chip method was used for the determination (Mcytomag-70K-3, Mouse Cytokine/Chemokine Magnetic Bead Panel). Data were expressed as x±s, and SPSS 10.0 line single-factor analysis of variance was performed among groups, a significant difference was indicated when p<0.05.

apoE−/− mice [2] = assay: Blood lipids (LDL-C, HDL-C) in apoE-/- mice on high-fat diet; format: in vivo, mouse; details: apoE-/- mice serum, intragastric 15 weeks, compounds 30 mg/(kg·d), simvastatin 10 mg/(kg·d), x ± s; for HDL-C: n = 5, saline control 3.74 ± 0.62; for LDL-C: n = 5, saline control 7.33 ± 1.03
Text: The effects of the compounds prepared in Examples 1-30 of the present invention on the percentages of areas of atherosclerotic plaque formation to the area of the entire artery in apoE−/− mice with a high-fat diet and the levels of low-density lipoprotein cholesterol and the levels of high-density lipoprotein, the specific steps are as follows:
1. animals: 160 ten-week-old, healthy and clean-grade apoE−/− mice (purchased from Peking University Experimental Animal Center), males, weight: 22-25 g, were housed in separate cages in a sterile laminar feeding room and fed freely. The mice were fed by a high-fat diet (conventional feed+0.15% cholesterol+21% lard) for 25 weeks, the room temperature was kept at 24° C., relative humidity: 50%, illumination time 7:30-19:30.
2. Grouping, administration method:
after 10 weeks of feeding, the animals were divided into the following 32 groups (n=5) by weight in a balanced and random manner, and killed 15 weeks after administration.
Normal saline control group: normal saline, intragastric administration.
Positive control group: simvastatin 10 mg/(kg·d), intragastric administration.
The compound groups prepared in Examples 1-30 of the present invention (30 groups in total): each was intragastric administered 30 mg/(kg·d).
(2) Determination of the levels of total cholesterol (TC), low-density cholesterol lipoprotein (LDL-C) and high-density lipoprotein cholesterol (HDL-C): using ROCHE 7060 automatic biochemical analyzer for the determination.
Data were expressed as x±s, and SPSS 10.0 line single-factor analysis of variance was performed among groups, a significant difference was indicated when p<0.05.

apoE−/− mice [3] = assay: Atherosclerotic plaque area to total aortic area in apoE-/- mice on high-fat diet (Sudan IV staining); format: in vivo, mouse; details: intragastric 15 weeks, compounds 30 mg/(kg·d), simvastatin 10 mg/(kg·d), x ± s, n = 5, saline control 14.67 ± 3.58
Text: as §1, with “(1) Analysis” for “(3) Determination”, “the area of atherosclerotic plaque and its percentage to total area: after the animals were killed, the aortas were separated, from the roots of the aortas to the terminal bifurcations of the abdominal aortas. After formalin fixation, the aortas were stained with Sudan IV, the red stained parts were the areas of atherosclerotic lesions. The percentage of the area of the lesion area to total area” for “TNF-α level: Millipore liquid phase chip method”, “calculated using Image Pro Plus 5.0 software.” for “used for the determination (Mcytomag-70K-3, Mouse Cytokine/Chemokine Magnetic Bead Panel).”

Row | Structure (SMILES) | Cell Survival Rate (RAW264.7 cells) | Foam cell formation (%) ([1]; dose 10 μmol/L) | Foam cell formation (%) ([1]; dose 30 μmol/L) | TNF-α level (ng/g) (TNF-α) | HDL-C (apoE−/− mice [2]) | LDL-C (apoE−/− mice [2]) | Plaque area/total aorta area (%) (apoE−/− mice [3])
1 | COC(=O)CNCCC[C@](C)(OC(C)=O)C1CC[C@]2(C)[C@@H]1C(OC(C)=O)CC1[C@@]3(C)CC[C@H](OC(C)=O)C(C)(C)C3CC[C@]12C (stereo partly drawn) [Compound 24] | 0.89 ± 0.14 | 79 ± 18 ^a % | 66 ± 16 ^a % | 15.47 ± 2.88 ^a ng/g | 4.68 ± 0.67 ^a mmol/L | 5.65 ± 1.04 ^a mmol/L | 9.54 ± 2.65 ^a %
2 | CC(=O)OC1CC2[C@@]3(C)CC[C@H](OC(C)=O)C(C)(C)C3CC[C@@]2(C)[C@]2(C)CCC([C@](C)(CCC=O)OC(C)=O)[C@@H]12 (stereo partly drawn) [Compound 18] | 0.85 ± 0.08 | 84 ± 16% | 76 ± 14 ^a % | 16.65 ± 4.57 ^a ng/g | 4.72 ± 0.91 ^a mmol/L | 6.15 ± 1.28 mmol/L | 9.15 ± 2.85 ^a %
3 | COC(=O)[C@H](CC(C)C)NCCC[C@](C)(O[C@H]1O[C@H](COC(C)=O)[C@@H](OC(C)=O)[C@H](OC(C)=O)[C@H]1OC(C)=O)C1CC[C@]2(C)[C@@H]1C(OC(C)=O)CC1[C@@]3(C)CC[C@H](OC(C)=O)C(C)(C)C3CC[C@]12C (stereo partly drawn) [Compound 4] | 0.84 ± 0.02 | 74 ± 15 ^a % | 54 ± 12 ^a % | 11.04 ± 3.68 ^a ng/g | 5.48 ± 0.61 ^a mmol/L | 4.62 ± 1.58 ^a mmol/L | 9.52 ± 4.21 ^a %
4 | COC(=O)[C@H](NCCC[C@](C)(O[C@H]1O[C@H](COC(C)=O)[C@@H](OC(C)=O)[C@H](OC(C)=O)[C@H]1OC(C)=O)C1CC[C@]2(C)[C@@H]1C(OC(C)=O)CC1[C@@]3(C)CC[C@H](OC(C)=O)C(C)(C)C3CC[C@]12C)[C@@H](C)O (stereo partly drawn) [Compound 6] | 0.83 ± 0.09 | 73 ± 16 ^a % | 48 ± 14 ^a % | 11.35 ± 4.97 ^a ng/g | 5.51 ± 0.94 ^a mmol/L | 6.04 ± 1.07 mmol/L | 8.16 ± 2.83 ^a %
5 | COC(=O)CCC(NCCC[C@](C)(OC(C)=O)C1CC[C@]2(C)[C@@H]1C(OC(C)=O)CC1[C@@]3(C)CC[C@H](OC(C)=O)C(C)(C)C3CC[C@]12C)C(=O)OC (stereo partly drawn) [Compound 23] | 1.01 ± 0.09 | 68 ± 18 ^a % | 47 ± 19 ^a % | 12.61 ± 374^a ng/g | 5.39 ± 0.61 ^a mmol/L | 4.28 ± 1.46 ^a mmol/L | 8.64 ± 2.46 ^a %
6 | COC(=O)[C@H](NCCC[C@](C)(OC(C)=O)C1CC[C@]2(C)[C@@H]1C(OC(C)=O)CC1[C@@]3(C)CC[C@H](OC(C)=O)C(C)(C)C3CC[C@]12C)[C@@H](C)O (stereo partly drawn) [Compound 21] | 0.94 ± 0.17 | 65 ± 15 ^a % | 47 ± 13 ^a % | 10.76 ± 3.54 ^a ng/g | 5.82 ± 0.95 ^a mmol/L | 4.31 ± 1.84 ^a mmol/L | 8.28 ± 3.29 ^a %
7 | COC(=O)[C@H](Cc1ccccc1)NCCC[C@](C)(OC(C)=O)C1CC[C@]2(C)[C@@H]1C(OC(C)=O)CC1[C@@]3(C)CC[C@H](OC(C)=O)C(C)(C)C3CC[C@]12C (stereo partly drawn) [Compound 27] | 0.87 ± 0.04 | 76 ± 12 ^a % | 65 ± 18 ^a % | 17.95 ± 2.15 ^a ng/g | 4.37 ± 0.56 ^a mmol/L | 5.55 ± 1.06 ^a mmol/L | 10.65 ± 3.82 ^a %
8 | COC(=O)[C@@H](Cc1ccc(O)cc1)NCCC[C@](C)(OC(C)=O)C1CC[C@]2(C)[C@@H]1C(OC(C)=O)CC1[C@@]3(C)CC[C@H](OC(C)=O)C(C)(C)C3CC[C@]12C (stereo partly drawn) [Compound 28] | 0.89 ± 0.04 | 63 ± 11 ^a % | 45 ± 16 ^a % | 11.84 ± 2.91 ^a ng/g | 5.55 ± 0.63 ^a mmol/L | 4.59 ± 1.62 ^a mmol/L | 8.18 ± 2.89 ^a %
9 | CC(=O)OC[C@H]1O[C@H](O[C@@](C)(CCC=C(C)C)C2CC[C@]3(C)[C@@H]2C(OC(C)=O)CC2[C@@]4(C)CC[C@H](OC(C)=O)C(C)(C)C4CC[C@]23C)[C@H](OC(C)=O)[C@@H](OC(C)=O)[C@@H]1OC(C)=O (stereo partly drawn) [Compound 1] | 0.65 ± 0.07 ^a | 83 ± 12% | 65 ± 18 ^a % | 19.41 ± 3.81 ^a ng/g | 4.55 ± 0.86 ^a mmol/L | 6.39 ± 1.09 mmol/L | 10.65 ± 2.62 ^a %
